{"source": "patent US10993950B2", "about": "“Medical device for the treatment of HPV cutaneous infections” (Poli MD S.R.L., priority 2017, dated 2021)", "tested_on": "SkinEthic RHE/S/17 reconstituted human epidermis", "test": "TEM ultrastructure of artificial constructs of human skin (SkinEthic) after treatment with ASA compositions", "format": "cell-based", "method": "Experiments Comparing Different ASA-Containing Compositions on the Ultrastructure of Artificial Constructs of Human Skin (SkinEthic)\nArtificial Constructs of Human Skin\nSkinEthic™ RHE/S/17 reconstituted human epidermis samples were used. This is an in vitro reconstituted human epidermis from normal human keratinocytes grown on a polycarbonate filter at the air-liquid interface.\nThe tissue samples were removed from the protective agarose and incubated in a multiwell with 6 wells with 1 ml of maintenance medium per well.\nAfter about 14 hours of incubation with the described-above compositions, the epidermis inserts were cut and fixed in 500 microliters of fixative (glutaraldehyde 2.5%, paraformaldehyde 2% in cacodylate buffer 0.1 M at pH 7.4) for 2 hours at room temperature.\nAfter trimming small rectangles of fabric, the samples were included in an epoxy resin. Ultra-thin slices were obtained and placed on copper screens, then stained with uranyl acetate and lead citrate.", "data": [{"smiles": "CC(O)CO", "note": "(stereo not drawn) [Composition 3, propylene glycol]", "values": [{"measurement": "overall appearance of the basal, spinous and granular layers (TEM)", "result": "preserved and similar to the control"}, {"measurement": "N. of corneocyte layers left after treatment", "setting": "about 14 hours of incubation, TEM, not-treated control >25", "result": "19-20"}, {"measurement": "efficacy as judged from corneocyte layers left", "setting": "verbal rating of Table 1 data", "result": "poor efficacy"}]}]}
